Test results reported in article PMC10139140, “Synthesis of Novel 2-(Cyclopentylamino)thiazol-4(5H)-one Derivatives with Potential Anticancer, Antioxidant, and 11β-HSD Inhibitory Activities” (International Journal of Molecular Sciences, 2023).
Entries after “also recorded” stand apart in the source; their conditions may differ.

Columns and labels:
U-118 MG cells [1] = test: Reactive oxygen species level (dihydroethidium probe), U-118 MG; assay type: cell-based; conditions: 500 µM, 72 h
Experimental: (§1) The BJ (CRL-2522), Caco-2 (HTB-37), PANC-1 (CRL-1469), U-118 MG (HTB-15), SK-MEL-30 (ACC 151), and MDA-MB-231 (HTB-26) cell lines were purchased from ATCC (Manassas, VA, USA) or DSMZ (Braunschweig, GERMANY). Cells were cultured in accordance with manufacturers' recommendations in a DMEM, MEM, or RPMI-1640 (Sigma, Saint Louis, MO, USA; Gibco, Waltham, MA, USA), supplemented with 10% FBS, except for Caco-2 (20%) (Thermo Fisher Scientific, Waltham, MA, USA) and 1% antibiotic mix solution (penicillin, streptomycin; Thermo Fisher Scientific, Waltham, MA, USA) in a humidified atmosphere with 5% CO2 at 37 °C. All cell lines were cultured in T75 cell culture flasks or cell culture dishes to reach 80–90% confluency and seeded at a standard density of 5 × 10^3 cells/0.32 cm^2, except for BJ cells at 2 × 10^3 cells/0.32 cm^2.
(§2) The assay was performed following previously reported method. The cells (BJ, Caco-2, PANC-1, U-118 MG, SK-MEL-30, and MDA-MB-231) were seeded at an established density into 96-well black plates. Measurement of intracellular superoxide, nitric oxide, and free thiol levels were assessed with the use of fluorogenic probes: dihydroethidium (Cayman Chemical, Ann Arbor, MI, USA, #12013), DAF-2 diacetate (Cayman Chemical, Ann Arbor, MI, USA, #85165), and Thiol Tracker Violet (Thermo Scientific, Waltham, MA, USA, #T10095). After compound treatment (72 h), the cells were probed at a final concentration of 5 µM each for 15 min at 37 °C. Quantifications were taken with a BioTek–Synergy H1 microplate reader, and the results are presented as mean values + SD.

U-118 MG cells [2] = test: Reactive nitrogen species level (DAF-2 diacetate probe), U-118 MG; assay type: cell-based; conditions: 500 µM, 72 h
Experimental: as §1, §2

MDA-MB-231 cells [3] = test: Reactive nitrogen species level (DAF-2 diacetate probe), MDA-MB-231; assay type: cell-based, human; conditions: MDA-MB-231, 500 µM, 72 h
Experimental: as §1
(§3) The assay was performed following previously reported method. […] Measurement of intracellular superoxide, nitric oxide, and free thiol levels were assessed with the use of fluorogenic probes: dihydroethidium (Cayman Chemical, Ann Arbor, MI, USA, #12013), DAF-2 diacetate (Cayman Chemical, Ann Arbor, MI, USA, #85165), and Thiol Tracker Violet (Thermo Scientific, Waltham, MA, USA, #T10095). […] Quantifications were taken with a BioTek–Synergy H1 microplate reader, and the results are presented as mean values + SD.

Caco-2 cells = test: Reactive oxygen species level (dihydroethidium probe), Caco-2; assay type: cell-based, human; conditions: Caco-2, 500 µM, 72 h
Experimental: as §1, §2

BJ cells [4] = test: Reactive nitrogen species level (DAF-2 diacetate probe), BJ; assay type: cell-based; conditions: 500 µM, 72 h
Experimental: as §1, §3

PANC-1 cells = test: Reactive nitrogen species level (DAF-2 diacetate probe), PANC-1; assay type: cell-based, human; conditions: PANC-1, 500 µM, 72 h
Experimental: as §1, §3

MDA-MB-231 cells [5] = test: Reactive oxygen species level (dihydroethidium probe), MDA-MB-231; assay type: cell-based, human; conditions: MDA-MB-231, 500 µM, 72 h
Experimental: as §1, §2

BJ cells [6] = test: Reactive oxygen species level (dihydroethidium probe), BJ; assay type: cell-based; conditions: 500 µM, 72 h
Experimental: as §1, §2

[7] = tested on: all cell lines tested (BJ, Caco-2, PANC-1, U-118 MG, SK-MEL-30, MDA-MB-231); test: Reduced glutathione level (Thiol Tracker Violet probe), all cell lines tested; assay type: cell-based; conditions: 500 µM, 72 h
Experimental: as §1, §3

| SMILES | level of reactive oxygen species (ROS) (U-118 MG cells [1]) | level of reactive nitrogen species (RNS) (U-118 MG cells [2]) | level of reactive oxygen species (ROS) (Caco-2 cells) | level of reactive oxygen species (ROS) (MDA-MB-231 cells [5]) | level of reactive oxygen species (ROS) (BJ cells [6]) | further results |
| --- | --- | --- | --- | --- | --- | --- |
| CC1SC(NC2CCCC2)=NC1=O (centres unmarked) [Compound 3a, 2-(cyclopentylamino)-5-methylthiazol-4(5H)-one] | high increase | increase | – | – | – | level of reactive nitrogen species (RNS) (MDA-MB-231 cells [3]): increase |
| CCC1SC(NC2CCCC2)=NC1=O (centres unmarked) [Compound 3b, 2-(cyclopentylamino)-5-ethylthiazol-4(5H)-one] | high increase | – | high increase | – | – | level of reactive nitrogen species (RNS) (BJ cells [4]): increase |
| CCCC1SC(NC2CCCC2)=NC1=O (centres unmarked) [Compound 3c, 2-(cyclopentylamino)-5-propylthiazol-4(5H)-one] | – | – | high increase | – | – | – |
| CC(C)C1SC(NC2CCCC2)=NC1=O (centres unmarked) [Compound 3d, 2-(cyclopentylamino)-5-isopropylthiazol-4(5H)-one] | – | increase | – | – | – | – |
| CC1(C)SC(NC2CCCC2)=NC1=O [Compound 3e, 2-(cyclopentylamino)-5,5-dimethylthiazol-4(5H)-one] | high increase | – | high increase | – | – | level of reactive nitrogen species (RNS) (PANC-1 cells): increase |
| O=C1N=C(NC2CCCC2)SC1c1ccc(Br)cc1 (centres unmarked) [Compound 3g, 2-(cyclopentylamino)-5-(4-bromophenyl)thiazol-4(5H)-one] | – | – | high increase | increase | increase | level of reduced glutathione [7]: low level; also recorded: especially strong reduction |
| O=C1N=C(NC2CCCC2)SC12CCCCC2 [Compound 3h, 2-(cyclopentylamino)-1-thia-3-azaspiro[4.5]dec-2-en-4-one] | high increase | increase | – | increase | increase | – |
| O=C1N=C(NC2CCCC2)SC12CCC2 [Compound 3i, 6-(cyclopentylamino)-5-thia-7-azaspiro[3.4]oct-6-en-8-one] | high increase | – | high increase | increase | increase | – |
